# In patent US7879863B2, “Aniline derivatives” (Ajinomoto Co., Inc., priority 2004, dated 2011):
# Marks after values point to notes of the source that are not given here.
# Tests used:
# [1] = target: T1, human activated tissue kallikrein (Homo sapiens, UniProt P06870); test: Measurement of tissue kallikrein inhibitory activity; type: biochemical; conditions: activated tissue kallikrein activity (initial rate) inhibited by 50%; substrate D-valyl-L-leucyl-L-arginyl-p-nitroanilide; 37° C.
# T1 construct: 6xHis (C); made in house; host or cells: baculovirus / Sf21 insect cells
# T1 sequence (P06870 25-262): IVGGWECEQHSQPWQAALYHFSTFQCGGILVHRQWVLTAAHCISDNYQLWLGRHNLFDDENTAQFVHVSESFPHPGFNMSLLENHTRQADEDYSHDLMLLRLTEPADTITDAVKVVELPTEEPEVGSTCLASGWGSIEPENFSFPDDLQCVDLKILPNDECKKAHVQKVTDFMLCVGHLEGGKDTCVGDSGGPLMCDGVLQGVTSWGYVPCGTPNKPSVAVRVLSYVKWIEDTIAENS
# Experimental: Measurement of tissue kallikrein inhibitory activity
# Expression and purification of human activated tissue kallikrein was performed according to the method of Angermann (A. Angermann et al., Eur. J. Biochem., 206, 225-233 (1992)). That is, a gene was prepared by adding 6 residues of histidine to the C-terminal side of human pancreas kallikrein gene (D. Fukuchima et al, Biochemistry, 24, 8037-8043 (1985)), and tissue prokallikrein was expressed by a system using a baculovirus-insect cell (Sf21). Purified human tissue kallikrein was obtained from the culture supernatant by purification using a nickel chelate column (Ni-NTA, QIAGEN K. K.), digestion with TPCK trypsin and further nickel chelate column. To a solution (100 μL) of the human activated tissue kallikrein adjusted to 0.0625 μg/mL with an assay buffer (100 mM tris-hydrochloride buffer (pH 8.4) containing 0.2M NaCl, 0.02% Tween 20, and 0.1% PEG 6000) was added an assay buffer (containing 2% DMSO) solution (50 μL) of the test compound adjusted to the objective concentration, and the mixture was incubated at 37° C. for 10 minutes (min=minutes). Then, a 4 mM solution (50 μL) of D-valyl-L-leucyl-L-arginyl-p-nitroanilide hydrochloride (BACHEM AG) adjusted with the assay buffer was added, the absorbance was measured and the reaction rate was determined. As a control, a DMSO solution (50 μL) was added instead of the solution of the test compound. Absorbance was measured at a wavelength of 405 nm at 60 second intervals for 90 min using a Benchmark Plus Microplate Reader (BIO RAD). The negative logarithm value (abbreviated as pIC50) of the test compound concentration when the activated tissue kallikrein activity (initial rate) was inhibited by 50% without addition of the test compound was used as an index of the activated tissue kallikrein inhibitory activity.
# [2] = test system: acetic acid writhing model; test: Efficacy evaluation in acetic acid writhing model; type: in vivo, male ICR mice; conditions: mice, writhing number 5 to 20 min after 0.9% acetic acid i.p., mean ± standard error
# Experimental: Efficacy evaluation in acetic acid writhing model
# The acetic acid writhing model was subjected to evaluation according to the method of European Journal of Pharmacology, 352, 47-52 (1998). To be specific, a solution of the test compound adjusted to the objective concentration with a 0.5 (w/v) % tragacanth gum solution was orally administered to male ICR mice (CHARLES RIVER LABORATORIES JAPAN, INC.) at 5 mL/kg, and a 0.9% acetic acid solution adjusted with a physiological saline was intraperitoneally administered 60 min later at 5 mL/kg. The number of writhing for 15 min from 5 min to 20 min after administration of a 0.9% acetic acid solution was counted and taken as the writhing number of the test compound. A mouse, to which a 0.5 (w/v) % tragacanth gum (TG) solution was orally administered at 5 ml/kg instead of the test compound, was used as a control. The suppression rate (%) was calculated by subtracting the relative value of each mouse from the relative value when the average value of the control group is 100%. As a Reference Example, the value obtained by oral administration of a positive control drug, indomethacin, instead of the test compound is shown. […] For testing the significant difference, Dunnett's t-test was used, and statistic significance as shown by P<0.05 and P<0.01 relative to the TG control group is shown in the Table with * and **, respectively.
# [3] = test system: DSS-induced enteritis model; test: Efficacy evaluation in DSS-induced enteritis model; type: in vivo, female CBA mice; conditions: 10 mg/kg oral, mice, 5% DSS; relative to non-treatment group = 100%; mean ± standard error
# Source text: Efficacy evaluation in DSS-induced enteritis model
# The dextran sodium sulfate (DSS)-induced enteritis model was subjected to evaluation by a partly-modified methods of Gastroenterology, 98, 694-702 (1990) and Cytokine, 11, 890-896 (1998). A 5 (w/v) % DSS (manufactured by Sigma, MW 5,000) solution was freely taken by female CBA mice (CHARLES RIVER LABORATORIES JAPAN, INC.) for a given period to induce enteritis. A solution of the test compound adjusted to the objective concentration with a 0.5 (w/v) % tragacanth gum (TG) solution was orally administered at 5 mL/kg. Upon autopsy, the length, weight and the like of the large intestine were evaluated and used as an index of the onset of inflammatory enteritis. As a control, a mouse, to which a 0.5 (w/v) % TG solution was orally administered at 5 mL/kg instead of the test compound, was used. The length and weight of the large intestine are expressed as the relative value when the average value of the non-treatment group is 100%. As a Reference Example, the values obtained by oral administration of a positive control drug, salazosulfapyridine, instead of the test compound are shown. […] For testing the significant difference, Dunnett's t-test was used, and statistic significance as shown by P<0.05 and P<0.01 relative to the TG control group is shown in the Table with * and **, respectively.
smiles,measurement,setting,value
CC(C)[C@H](CNC(=O)Cc1ccccn1)Nc1ccc(C(F)(F)F)cc1 [Compound A-8],IC50,[1],91.2 nM
same,suppression rate (%),[2]; 3 mg/kg oral,33.7 ± 10.1* %
same,suppression rate (%),[2]; 10 mg/kg oral,52.7 ± 7.5** %
same,suppression rate (%),[2]; 30 mg/kg oral,63.5 ± 6.6** %
same,large intestine length (%),[3],80.4 ± 1.8** %
same,large intestine weight (%),[3],130.5 ± 5.28** %
